Reference: patent publication US9605023B2, “Application of SP peptide or derivative thereof in preparing medicines for preventing or treating asthma” (priority 2012, dated 2017)
Where no end group is shown, it is not given here.

What was measured:
TNF-α = conditions: pneumonia; recorded in CN101822816A; cited from earlier work
IL-13 [1] = test: IL-13 level (ELISA) in serum and lung tissue homogenates of allergic asthma mice induced by ovalbumin and aluminium hydroxide; type: in vivo, mouse; conditions: for IL-13 level in serums / IL-13 level in lung tissue homogenates: compared to model group
Procedure: (§1) ICR mice, half male and half female, are divided randomly into 9 groups with each group having 10 mice, that is:
(§2) 3) positive medicines group (administer an equal volume of dexamethasone injection solution with the model group, having the dosage of 0.9 μg/kg·d);
(§3) 4) SP peptide high-dosage preventive administration group, 5) SP peptide medium-dosage preventive administration group, and 6) SP peptide low-dosage preventive administration group (administer ovalbumin and aluminium hydroxide, and the SP peptides with a respective dosage of 250 μg/kg·d, 125 μg/kg·d and 62.5 μg/kg·d prepared into an SP peptide solution of a desired concentration with physiological saline).
(§4) 7) SP peptide high-dosage treatment administrative group, 8) SP peptide medium-dosage treatment administration group, and 9) SP peptide low-dosage treatment administration group (administer ovalbumin and aluminium hydroxide, and the SP peptides with a respective dosage of 250 μg/kg·d, 125 μg/kg·d and 62.5 μg/kg·d prepared into an SP peptide solution of a desired concentration with physiological saline).
(§5) All dosage groups of the SP peptide are administered by subcutaneous injection with a 0.1 ml SP peptide solution per 10 g weight of a mouse, the blank control group uses the same amount of physiological saline (0.1 ml physiological saline per 10 g weight of a mouse), and the positive medicines group is administered by intraperitoneal injection with 0.1 ml positive medicines per 10 g weight of a mouse.
(§6) Preparation of sensitized liquid: prepare in a proportion of dissolving 10 ug ovalbumin and 2 mg aluminium hydroxide in 0.5 ml physiological saline, and use it right after being prepared.
(§7) On day 1, day 7 and day 14, the mice of all groups (the model group, the preventive administration groups, the treatment administration groups, and the positive medicines group) apart from the blank control group are injected intraperitoneally with 0.5 ml freshly prepared sensitized liquid. The blank control group is injected intraperitoneally with an equal volume of physiological saline.
(§8) Since day 21 (i.e., starting from week 4), the mice of all groups apart from the blank control group are placed in a 16 L closed container every fourth days, make the mice inhale 1 wt % ovalbumin physiological saline by ultrasonic nebulization, with an inhalation duration of 25 min/d and a nebulization flow rate of 3 ml/min, for twice a week to induce asthma, and the process continues until week 19. The mice in the blank control group undergo nebulization […] with an equal volume of physiological saline.
(§9) Particularly, the preventive administration group (the SP peptide high-dosage preventive administration group, SP peptide medium-dosage preventive administration group, and SP peptide low-dosage preventive administration group) are injected subcutaneously a corresponding dosage of SP peptide at right hindlimb of the mouse, one hour after the first intraperitoneal injection of the sensitized liquid (i.e., from day 1), and are administered every other day for 15 times in total.
(§10) From the same day, the mice in the treatment administration groups (SP high-dosage treatment administration group, SP medium-dosage treatment administration group, and SP low-dosage treatment administration group) are injected subcutaneously with a corresponding dosage of SP peptide at right hindlimb thereof, and are administered every other day for 15 times in total. From the same day, the mice in the positive medicines group are injected intraperitoneally with 0.1 ml dexamethasone injection per 10 g weight of a mouse, and are administered every other day for 15 times in total.
(§11) As for the determination of the experimental result, all mice are killed to obtain blood by picking off their eyeballs 6 hours after the final nebulization inhalation (week 19), and serum is collected and stored at −70° C. until needed. […]

r-IFN, IL-4 and IL-10 = conditions: disclosed in CN1194986C and CN1216075C; cited from earlier work
IL-4 = IL-4 level (ELISA) in serum and lung tissue homogenates of allergic asthma mice induced by ovalbumin and aluminium hydroxide; type: in vivo, mouse
Procedure: as §1, §2, §3, §4, §5, §6, §7, §8, §9, §10, §11

IL-13 [2] = test: IL-13 level (ELISA) in serum and lung tissue homogenates of allergic asthma mice induced by ovalbumin and aluminium hydroxide; type: in vivo, mouse; conditions: compared to model group
[3] = test system: allergic asthma mouse model; test: Histopathologic examination and lesion score of lung tissues of allergic asthma mice induced by ovalbumin and aluminium hydroxide; type: in vivo
Procedure: as §1, §2, §5, §6, §7, §8, §9, §10
Lung tissue lesions (including bronchia and perivascular interstitial edema, alveolar wall congestion or emphysema) are marked respectively as 1, 2, 3 and 4 in ascending order of severity, 0 stands for no obvious lesions, and 0.5 for extreme mild lesions. All scores are accumulated, and a mean score (±SD) of each mouse in each group is calculated, and a higher score indicates a more severe level of lesions. Perform a rank-sum test to pathological score results to compare the two samples, and compare with the model group.
2.2 Data Processing: perform data processing to all data, rank-sum test to pathological score, t-test to the other data, and make statistics to analytic results.

[4] = all SP peptide high-/medium-/low-dosage preventive and treatment administration groups, compared to the model group (summary statement)
[5] = SP peptide high-dosage preventive administration group, 250 μg/kg·d s.c., FIG. 9
[6] = SP peptide high-dosage treatment administration group, 250 μg/kg·d s.c., FIG. 12
[7] = SP peptide low-dosage preventive administration group, 62.5 μg/kg·d s.c., FIG. 7
[8] = SP peptide low-dosage treatment administration group, 62.5 μg/kg·d s.c., FIG. 10
[9] = SP peptide medium-dosage preventive administration group, 125 μg/kg·d s.c., FIG. 8
[10] = SP peptide medium-dosage treatment administration group, 125 μg/kg·d s.c., FIG. 11
[11] = positive drug group, dexamethasone 0.9 μg/kg·d i.p. every other day x15 from week 15, FIG. 6

Compound: GQTYTSG
- TNF-α level (TNF-α): reducing TNF-α level
- IL-13 level in serums (IL-13 [1]; SP peptide high-dosage preventive administration group, 250 μg/kg·d s.c. every other day x15 from day 1): significantly decreased
- IL-13 level in lung tissue homogenates (IL-13 [1]; SP peptide high-dosage preventive administration group, 250 μg/kg·d s.c.): significantly decreased
- IL-13 level in lung tissue homogenates (IL-13 [1]; SP peptide high-dosage treatment administration group, 250 μg/kg·d s.c.): significantly decreased
- IL-13 level in lung tissue homogenates (IL-13 [1]; SP peptide low-dosage treatment administration group, 62.5 μg/kg·d s.c.): significantly decreased
- IL-13 level in serums (IL-13 [1]; SP peptide medium-dosage preventive administration group, 125 μg/kg·d s.c. every other day x15 from day 1): significantly decreased
- IL-13 level in lung tissue homogenates (IL-13 [1]; SP peptide medium-dosage preventive administration group, 125 μg/kg·d s.c.): significantly decreased
- IL-13 level in lung tissue homogenates (IL-13 [1]; SP peptide medium-dosage treatment administration group, 125 μg/kg·d s.c.): significantly decreased
- IL-13 level (IL-13 [1]; [4]): significantly reduced
- level of cytokines r-IFN, IL-4 and IL-10 (r-IFN, IL-4 and IL-10): increased level
- IL-4 level (IL-4; SP peptide high-dosage preventive administration group, 250 μg/kg·d s.c., compared to model group): significantly decreased
- IL-4 level (IL-4; SP peptide high-dosage treatment administration group, 250 μg/kg·d s.c., compared to model group): significantly decreased
- IL-4 level (IL-4; SP peptide low-dosage treatment administration group, 62.5 μg/kg·d s.c., compared to model group): significantly decreased
- IL-4 level (IL-4; SP peptide medium-dosage preventive administration group, 125 μg/kg·d s.c., compared to model group): significantly decreased
- IL-4 level (IL-4; SP peptide medium-dosage treatment administration group, 125 μg/kg·d s.c., compared to model group): significantly decreased
- IL-4 level (IL-4; [4]): significantly reduced
- IL-13 level in serums (IL-13 [2]; SP peptide high-dosage treatment administration group, 250 μg/kg·d s.c. every other day x15 from week 15): significantly decreased
- IL-13 level in serums (IL-13 [2]; SP peptide low-dosage treatment administration group, 62.5 μg/kg·d s.c. every other day x15 from week 15): significantly decreased
- IL-13 level in serums (IL-13 [2]; SP peptide medium-dosage treatment administration group, 125 μg/kg·d s.c. every other day x15 from week 15): significantly decreased
- overall score of lung tissue lesion level, difference compared to the model group (rank-sum test) ([3]; SP peptide high-dosage preventive administration group, 250 μg/kg·d s.c., ** P<0.01, FIG. 3): highly significant differences
- inflammatory cells infiltration (lung tissue section) [3, 5]: infiltration with a few inflammatory cells around bronchus
- pulmonary interstitial edema (lung tissue section) [3, 5]: mild pulmonary interstitial edema
- overall score of lung tissue lesion level, difference compared to the model group (rank-sum test) ([3]; SP peptide high-dosage treatment administration group, 250 μg/kg·d s.c., ** P<0.01, FIG. 3): highly significant differences
- inflammatory cells infiltration (lung tissue section) [3, 6]: infiltration with a few inflammatory cells
- pulmonary interstitial edema (lung tissue section) [3, 6]: mild pulmonary interstitial edema
- overall score of lung tissue lesion level, difference compared to the model group (rank-sum test) ([3]; SP peptide low-dosage preventive administration group, 62.5 μg/kg·d s.c., * P<0.05, FIG. 3): significant differences
- inflammatory cells infiltration (lung tissue section) [3, 7]: infiltration with greater inflammatory cells
- pulmonary interstitial edema (lung tissue section) [3, 7]: moderate or severe pulmonary interstitial edema
- overall score of lung tissue lesion level, difference compared to the model group (rank-sum test) ([3]; SP peptide low-dosage treatment administration group, 62.5 μg/kg·d s.c., * P<0.05, FIG. 3): significant differences
- inflammatory cells infiltration (lung tissue section) [3, 8]: infiltration with greater inflammatory cells
- pulmonary interstitial edema (lung tissue section) [3, 8]: moderate intrapulmonary small perivascular and peribronchial pulmonary interstitial edema
- overall score of lung tissue lesion level, difference compared to the model group (rank-sum test) ([3]; SP peptide medium-dosage preventive administration group, 125 μg/kg·d s.c., * P<0.05, FIG. 3): significant differences
- inflammatory cells infiltration (lung tissue section) [3, 9]: infiltration with a few inflammatory cells
- pulmonary interstitial edema (lung tissue section) [3, 9]: moderate or mild pulmonary interstitial edema
- overall score of lung tissue lesion level, difference compared to the model group (rank-sum test) ([3]; SP peptide medium-dosage treatment administration group, 125 μg/kg·d s.c., ** P<0.01, FIG. 3): highly significant differences
- alveolar wall congestion or emphysema (lung tissue section) [3, 10]: congestion around alveolar walls, alveoli are in an emphysematous state
- inflammatory cells infiltration (lung tissue section) [3, 10]: infiltration with many inflammatory cells
- pulmonary interstitial edema (lung tissue section) [3, 10]: mild intrapulmonary small perivascular and peribronchial pulmonary interstitial edema
- bronchia and perivascular interstitial edema, edematous inflammatory cells infiltration, alveolar wall congestion or emphysema ([3]; after administering SP peptide for prevention or treatment, histopathologic test, FIG. 3): significantly reduced
- lung tissue lesion level [3, 4]: significantly alleviated
- asthma modelling by pathological check on day 1 of week 15 ([3]; five mice drawn from each group, preventive administration groups (SP peptide 250, 125, 62.5 μg/kg·d s.c. from day 1, x15)): all asthma groups apart from the preventive administration groups are successfully modeled

Compound: C[C@@H]1C[C@H]2[C@@H]3CCC4=CC(=O)C=C[C@]4(C)[C@@]3(F)[C@@H](O)C[C@]2(C)[C@@]1(O)C(=O)CO [positive drug, dexamethasone, reference compound]
- inflammatory cells infiltration (lung tissue section) [3, 11]: infiltration with a few inflammatory cells
- pulmonary interstitial edema (lung tissue section) [3, 11]: mild pulmonary interstitial edema
